Test results from patent publication US9408406B2, “Food and beverage products containing 1,3-propanediol and methods of suppressing bitterness and enhancing sweetness in food and beverage products using 1,3-propanediol” (Kraft Foods Group Brands LLC, priority 2012, dated 2016).
“Also recorded” adds a separate entry of the source.

Assays:
[1] = tested on: consumers; test: Paired consumer tasting of beverages with 0.05% Stevia SG95 with or without 1,3-propanediol (Example 1); type: in vivo, human
Procedure: Beverage samples were prepared to evaluate the effect of the level of 1,3-propanediol on Stevia. The beverages were prepared just prior to testing using water and the ingredients according to Table 1 below.
Four pairs of beverages were evaluated by consumers in one sitting. The order of evaluating the pairs of products was blocked so that the highest level of 1,3-propanediol (sample 4) was always served as the first pair of beverages along with its corresponding control. The order of evaluating the beverage samples within pairs was rotated. There was a timed five minute break between pairs. Water and unsalted crackers were used as a palate cleanser before tasting each beverage and between beverage pairs. The beverages were prepared at the facility prior to the onset of test using water along with the designated solutions.
The stevia used was SG95 from PureCircle. SG95 is a high purity combination (>95% steviol glycosides) of nine steviol glycosides. Reb A accounts for over half of the composition but also includes Rebaudioside D and Rebaudioside F. SG95 is 230 times sweeter than sugar.
The samples were tasted by consumers between 21-55 years of age who consume diet beverages at least once per month and are non-rejectors of flavored beverages. The consumers had no allergies or sensitivities to beverages or sweeteners, including artificial sweeteners.

[2] = tested on: tasters; test: Paired taster test: which sample is more bitter, 0.25% KCl in water with or without 1,3-propanediol (Example 2); type: in vivo, human
Procedure: A 0.25% KCl in water solution was prepared and test samples were dosed with the appropriate amount of 1,3-propanediol according to Table 2 below. One ounce samples of each solution were prepared. The tasters received a pair (one blank and one dosed sample) and asked to rate which sample was more bitter. The scores in Table 2 are the number of tasters that chose that sample as being more bitter.

[3] = tested on: consumers; test: Paired consumer tasting of beverages with 0.25% KCl with or without 1,3-propanediol (Example 3); type: in vivo, human
Procedure: Beverage samples were prepared to evaluate the effect of the level of 1,3-propanediol on KCl. The samples were tasted by consumers between 21-55 years of age with no allergies or sensitivities to food or beverages or ingredients.
(§1) On day 1 of testing, consumers were given two samples, one a 0.25% KCl solution and the other water, and asked “Which beverage is more bitter?” This was replicated a total of three times to obtain four different trials. Order within the pair was rotated. Those who selected the KCl sample at least three times across the four trials were classified as “KCl sensitive.” Consumers then evaluated three more pairs of samples with varying levels of 1,3-propanediol with KCl versus a standard control (no 1,3-propanediol) as outlined in Table 3 below.
(§2) After the first day of testing, it was determined the number of KCl Bitterness Sensitive consumers may have been overstated. It was hypothesized that respondents could detect differences between plain water and water containing KCl, such as saltiness, but may not have been perceiving bitterness. Therefore, a second bitterness sensitivity test was conducted on day 2 using three pairs of a KCl solution (0.25%) versus a NaCl solution (0.15%) in an attempt to have the solutions iso-salty. Two new levels of Zemea were evaluated along with KCl versus a standard control as outlined in Table 3 below.
The order of evaluating the beverage samples within pairs were rotated (left/right). The order of evaluating the pairs of products was blocked so the highest level of 1,3-propanediol was always served as the first pair of beverages along with its control. There was a timed 5 minute break between pairs. Water and unsalted crackers were used as a palate cleanser before tasting each beverage and between beverage pairs.

[4] = tested on: tasters; test: Triangle test for detecting 1,3-propanediol at low concentration (Example 4); type: in vivo, human; details: for tasters who could identify the 1,3-propanediol in a triangle test: four tasters
Procedure: Samples A-D were prepared according to Table 4 below to analyze and determine if 1,3-propanediol imparted any flavor when used at low concentrations. The samples were evaluated by a team of four tasters.
Samples A and B were compared.

[5] = tested on: panelists; test: Panel assessment of Reb A beverage with or without 1,3-propanediol (Example 5); type: in vivo, human; details: Sample H versus Sample G
Procedure: Samples were prepared to analyze the effect of 1,3-propanediol with sweeteners such as Reb A. Samples G and H were prepared as shown in Table 5 below.
Nine panelists compared the samples. Panelists rinsed prior to tasting the samples and in between sample assessment with seltzer, unsalted crackers and water with a one-minute break between samples. Samples were assessed on the second sip. The results are shown below in Table 6 with the comments indicating the order of what was tasted in each of the samples (Scale: 0-15=None to Extreme).

[6] = tested on: tasters; test: Taster evaluation with acetic acid (Example 7); type: in vivo, human; details: 0.05 percent acetic acid in water; none, 0.3 percent 1,3-propanediol or 0.3 percent propylene glycol; three tasters
Procedure: Samples were prepared to evaluate the effect of inclusion of 1,3-propanediol with acetic acid. Sample M included 0.05 percent acetic acid in water, Sample N included 0.05 percent acetic acid in water with 0.3 percent 1,3-propanediol, and Sample O included 0.05 percent acetic acid in water with 0.3 percent propylene glycol. The samples were evaluated by a team of three tasters.

[7] = tested on: tasters; test: Taster evaluation with 1% citric acid (Example 9); type: in vivo, human; details: 1 weight percent citric acid in water; 0.3 weight percent propylene glycol (V), none (W) or 1,3-propanediol (X); four tasters
Procedure: Samples were prepared to evaluate the effect of including 1,3-propanediol with a higher concentration of citric acid than in Example 8. Sample V included 1 weight percent citric acid and 0.3 weight percent propylene glycol in water. Sample W included 1 weight percent citric acid in water. Sample X included 1 weight percent citric acid in water with 0.3 weight percent 1,3-propanediol. The samples were then evaluated by a team of four tasters.

[8] = tested on: tasters; test: Taster evaluation with malic acid (Example 10); type: in vivo, human; details: 1 weight percent malic acid in water; 0.3 weight percent 1,3-propanediol (Y), propylene glycol (Z) or none (AA)
Procedure: Samples were prepared to evaluate the effect of including 1,3-propanediol with malic acid. Sample Y included 1 weight percent malic acid with 0.3 weight percent 1,3-propanediol in water. Sample Z included 1 weight percent malic acid and 0.3 weight percent propylene glycol in water. Sample AA included 1 weight percent malic acid in water.

[9] = tested on: tasters; test: Taster evaluation with earl grey tea (Example 11); type: in vivo, human; details: steeped earl grey tea; 0.3 weight percent 1,3-propanediol (AB), none (AC) or propylene glycol (AD); four tasters
Procedure: Samples were prepared to evaluate the effect of including 1,3-propanediol with tea. Six earl grey tea bags were combined with 250 ml of water for 30 minutes. Sample AB included 0.3 weight percent 1,3-propanediol in the steeped tea and Sample AD included 0.3 weight percent propylene glycol in the steeped tea. Sample AC was a tea only control. The samples were evaluated by a team of four tasters.

[10] = tested on: tasters; test: Taster evaluation with Robusta instant coffee (Example 12); type: in vivo, human; details: 1 weight percent Robusta instant coffee in water; 0.3 weight percent propylene glycol (AE), none (AF) or 1,3-propanediol (AG)
Procedure: Samples were prepared to evaluate the effect of including 1,3-propanediol with coffee. Robusta instant coffee was prepared with 1 weight percent coffee in water. Sample AE included 0.3 weight percent propylene glycol in the prepared coffee. Sample AF was a coffee only control. Sample AG included 0.3 weight percent 1,3-propanediol in the prepared coffee.

[11] = tested on: tasters; test: Bitterness perception with potassium chloride, taster panel (Example 6); details: 0.3% KCl in water; 0.3% 1,3-propanediol, none or 0.3% propylene glycol; five tasters
[12] = tested on: consumers; test: KCl bitterness sensitivity test (Example 3); type: in vivo, human
Text: as §1, §2

[13] = first round, Pair 1: 0.0019 percent 1,3-propanediol with 0.05% Stevia SG95
[14] = first round, Pair 2: 0.0075 percent 1,3-propanediol with 0.05% Stevia SG95
[15] = second round, Pair 2: 0.000005 percent 1,3-propanediol with 0.05% Stevia SG95
[16] = second round, Pair 4: 0.0005 percent 1,3-propanediol with 0.05% Stevia SG95
[17] = 0.000005 ppm 1,3-propanediol in 0.25% KCl in water
[18] = 0.00005 ppm 1,3-propanediol in 0.25% KCl in water
[19] = 0.005 ppm 1,3-propanediol in 0.25% KCl in water
[20] = 0.05 ppm 1,3-propanediol in 0.25% KCl in water
[21] = 0.5 ppm 1,3-propanediol in 0.25% KCl in water
[22] = 5 ppm 1,3-propanediol in 0.25% KCl in water
[23] = 50 ppm 1,3-propanediol in 0.25% KCl in water
[24] = 100 ppm 1,3-propanediol in 0.25% KCl in water
[25] = 500 ppm 1,3-propanediol in 0.25% KCl in water
[26] = 5000 ppm 1,3-propanediol in 0.25% KCl in water
[27] = about 0.0005% 1,3-propanediol with 0.25% KCl, consumers (general population), FIG. 4

OCCCO [1,3-propanediol]
Stevia bitterness versus control [1, 13]: significantly less Stevia bitterness
more mouth drying, longer lasting aftertaste and sweetness versus control [1, 13]: Neither the control nor the experimental sample of Pair 1 demonstrated significantly
sweetness versus control [1, 13]: fell short on being sweeter than control
all other attributes versus control [1, 14]: selected about equally
mouth drying versus control [1, 14]: significantly more “mouth drying”
attributes versus control ([1]; first round, Pair 3: 0.0150 percent 1,3-propanediol with 0.05% Stevia SG95): no statistical differences in attributes
attributes versus control ([1]; first round, Pair 4: 0.03 percent 1,3-propanediol (text; Table 1 prints 0.3%) with 0.05% Stevia SG95): no statistical differences in attributes
bitterness versus control ([1]; first round, Pair 4 level of 1,3-propanediol with 0.05% Stevia SG95): numerically more bitterness
attributes versus control ([1]; second round, Pair 1: 0.0000005 percent 1,3-propanediol with 0.05% Stevia SG95): no statistical differences in attributes
aftertaste compared to control [1, 15]: significantly longer lasting aftertaste
all other attributes versus control [1, 15]: selected about equally
attributes versus control ([1]; second round, Pair 3: 0.00005 percent 1,3-propanediol with 0.05% Stevia SG95): no statistical differences in attributes
bitterness compared to control [1, 16]: significantly less bitterness
sweetness compared to control [1, 16]: more sweetness; also recorded: significantly sweeter versus control
% of tasters that chose the control as more bittter [2, 17]: 63%
number of tasters that chose the 1,3-Propanediol sample as being more bitter [2, 17]: 3
% of tasters that chose the control as more bittter [2, 18]: 63%
number of tasters that chose the 1,3-Propanediol sample as being more bitter [2, 18]: 3
% of tasters that chose the control as more bittter ([2]; 0.0005 ppm 1,3-propanediol in 0.25% KCl in water): 100%
% of tasters that chose the control as more bittter [2, 19]: 50%
number of tasters that chose the 1,3-Propanediol sample as being more bitter [2, 19]: 4
% of tasters that chose the control as more bittter [2, 20]: 75%
number of tasters that chose the 1,3-Propanediol sample as being more bitter [2, 20]: 2
% of tasters that chose the control as more bittter [2, 21]: 63%
number of tasters that chose the 1,3-Propanediol sample as being more bitter [2, 21]: 3
% of tasters that chose the control as more bittter [2, 22]: 63%
number of tasters that chose the 1,3-Propanediol sample as being more bitter [2, 22]: 3
% of tasters that chose the control as more bittter [2, 23]: 75%
number of tasters that chose the 1,3-Propanediol sample as being more bitter [2, 23]: 2
% of tasters that chose the control as more bittter [2, 24]: 75%
number of tasters that chose the 1,3-Propanediol sample as being more bitter [2, 24]: 2
% of tasters that chose the control as more bittter [2, 25]: 75%
number of tasters that chose the 1,3-Propanediol sample as being more bitter [2, 25]: 2
% of tasters that chose the control as more bittter [2, 26]: 13%
number of tasters that chose the 1,3-Propanediol sample as being more bitter [2, 26]: 7
taste of 1,3-propanediol itself ([2]; 5000 ppm sample in 0.25% KCl in water): the bitterness of the 1,3-propanediol was apparent
sweetness, statistical significance ([3]; 0.0005 percent 1,3-propanediol with 0.25% KCl, non-KCl sensitive consumers): statistically significant increase in sweetness
reduced bitterness and increased sweetness ([3]; about 0.0005% 1,3-propanediol with 0.25% KCl, KCl sensitive consumers, FIG. 5): also found in the KCl sensitive consumers (FIG. 5), although to a less dramatic extent
bitterness [3, 27]: reduced bitterness
sweetness [3, 27]: increased sweetness
tasters who could identify the 1,3-propanediol in a triangle test ([4]; Samples A and B: 0.14% 1,3-propanediol in water): one
tasters who could identify the 1,3-propanediol in a triangle test ([4]; Samples C and D: 0.14% 1,3-propanediol in water with 10% sucrose): one
detectability at low levels ([4]; water or sucrose sweetened beverages): generally not detectable at low levels
effect on flavor profile with Reb A [5]: general shift in bitter and sour flavor profiles
sourness as indicated by the tasters [6]: increases the sourness compared to water when combined with acetic acid
sourness as indicated by the tasters [7]: increased sourness perception when combined with citric acid
sourness as indicated by the tasters [8]: more sour upfront but less lingering
other flavor notes / flavor profile as indicated by the tasters [9]: sour, bitter, and astringent characteristics all changed
bitterness as indicated by the tasters [10]: less bitter than without 1,3-propanediol
bitterness as indicated by the tasters [11]: functioned to suppress bitterness when used with potassium chloride

[Cl-].[K+] [KCl, potassium chloride]
share of “KCl sensitive” consumers ([12]; day 1: 0.25% KCl solution versus water): 67%
share of “KCl sensitive” consumers ([12]; day 2: KCl solution (0.25%) versus NaCl solution (0.15%)): 53%
